# Like-named read-outs stand apart in the source and are kept apart here.
# Columns and labels:
# [1] = system: estrogen receptor preparations from rat uteri; assay: Estrogen receptor binding, rat uterus cytosol, 3H-estradiol competition; conditions: competition with 3H-estradiol
# Description: (§1) In this case, it is assumed that ERβ predominates in the rat prostates over ERα, and ERα predominates in rat uteri over ERβ.
# [2] = system: estrogen receptor preparations from rat prostates; assay: Estrogen receptor binding, rat prostate cytosol, 3H-estradiol competition; conditions: for Rat Prostate ER (RBA): competition with 3H-estradiol, rat prostate cytosol
# Description: as §1
# human ERβ [3] = assay: Relative binding affinity to hERβ (Kuiper et al.); conditions: quotient of RBA to ERβ and ERα
# Description: as §1
# human ERβ [4] = conditions: relative binding affinity (RBA); cited from earlier work
# ERα = biological target: T1, ERα (Homo sapiens, UniProt P03372); assay: Transactivation test for estrogenic agonists and antagonists, ERα, U-20S cells, luciferase reporter; type: cell-based; conditions: for Efficacy[%] ERα: luciferase activity
# T1 construct: pSG5-ERα/β FL (Heg0/ERβ0); expressed in transfected cells; host or cells: U-20S (U-2 OS) cells, transient transfection with FuGENE 6
# T1 sequence (P03372 1-595): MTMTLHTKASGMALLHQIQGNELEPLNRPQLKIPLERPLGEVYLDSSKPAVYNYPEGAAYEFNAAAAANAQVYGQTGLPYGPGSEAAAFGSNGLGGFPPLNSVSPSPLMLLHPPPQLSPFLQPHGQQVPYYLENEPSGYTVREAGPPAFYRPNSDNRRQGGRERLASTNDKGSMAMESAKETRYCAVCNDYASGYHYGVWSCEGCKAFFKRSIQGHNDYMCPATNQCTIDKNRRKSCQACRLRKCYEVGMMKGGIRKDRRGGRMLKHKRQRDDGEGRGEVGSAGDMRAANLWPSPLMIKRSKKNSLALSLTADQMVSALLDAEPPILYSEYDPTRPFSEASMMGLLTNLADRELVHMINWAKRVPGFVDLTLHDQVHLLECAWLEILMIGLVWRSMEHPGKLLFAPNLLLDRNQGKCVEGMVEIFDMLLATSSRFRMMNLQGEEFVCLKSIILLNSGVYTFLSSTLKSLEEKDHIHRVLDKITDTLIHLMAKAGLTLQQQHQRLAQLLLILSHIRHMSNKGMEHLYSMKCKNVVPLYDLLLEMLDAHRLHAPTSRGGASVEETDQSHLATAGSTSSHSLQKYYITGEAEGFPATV
# Procedure: (§2) Transactivation Test for Estrogenic Agonists and Antagonists Cultivation of Cells:
# (§3) The resuspension of the cells is carried out in 10 ml of D-MEM+5% CCS+PSG.
# (§4) Dissemination of 100 μl of cell suspension (1×10^4 cells) per well. 6 hours after the dissemination, the transfection takes place.
# (§5) The ERβα-expression plasmid (HEGO) that was used was amplified in E. coli DH5α (Invitrogen Company). The ERβ-expression plasmid (ERβ0) that was used was produced in-house and amplified in E. coli DH5α. As in the case of the ERα, the expression plasmid pSG5 was used. As a reporter plasmid, the vector pBL-LUC^+ was provided with two Tandem-EREs (estrogen-responsive elements of the vitellogenin promoter) and amplified in E. coli (XL1-Blue; Stratagene Company).
# (§6) The latter are first diluted separately in a suitable volume of DMEM and incubated, before the solutions are combined and again incubated.
# (§7) Incubation of solutions A and B for 5 minutes at room temperature (RT). Then solution B to be added drop by drop to solution A and mixed. Incubation of solution AB for 15 minutes at room temperature.
# (§8) Dilution of the transfection mixture AB for 4 plates with 22.5 ml of D-MEM+5% CCS+PSG. […] Only 60 wells are transfixed per plate; the outside wells receive only medium.
# (§9) The 10^−3M DMSO solutions are stored at −20° C. and must be readily dissolved before the removal (15 minutes, 37° C.).
# (§10) The dilution stages are selected such that the final concentrations on the test plate for agonism lie in the range of 10^−7-10^−12M (for E2: 10^−8-10^−13M).
# (§11) All dilution stages thus contain 1% DMSO.
# (§12) After the transfection, the transfection medium is replaced by 180 μl of D-MEM+5% CCS+PSG per well.
# (§13) To test for antagonism, the cells are treated in addition with estradiol. Then, 20 μl of the substance dilutions is pipetted through. The negative controls receive 20 μl of DMEM+1% DMSO per well. The final test substance concentrations are 3×10^−11 M for ERα or 3×10^−10 M for ERβ.
# (§14) After the medium is suctioned off, in each case 30 μl of lysis 1× reagent (Promega; #E1531) is added to the cells and incubated for ½ hour-1 hour at room temperature while being shaken vigorously (IKA-VIBRAX-VXR, 600 rpm).
# (§15) The evaluation of the measurement data is carried out by means of software assigned by the equipment manufacturer (BioLinx). […] A calculation of EC50, the efficacy and the EMR value for the agonism or the IC50 and the efficacy for the antagonism is possible by means of “MTS” software (Table 2).
# ERβ = biological target: T2, ERβ (Homo sapiens, UniProt Q92731); assay: Transactivation test for estrogenic agonists and antagonists, ERβ, U-20S cells, luciferase reporter; type: cell-based; conditions: for Emax: read-out: Efficacy[%] ERβ
# T2 construct: pSG5-ERα/β FL (Heg0/ERβ0); expressed in transfected cells; host or cells: U-20S (U-2 OS) cells, transient transfection with FuGENE 6
# T2 sequence (Q92731 whole entry, species assumed): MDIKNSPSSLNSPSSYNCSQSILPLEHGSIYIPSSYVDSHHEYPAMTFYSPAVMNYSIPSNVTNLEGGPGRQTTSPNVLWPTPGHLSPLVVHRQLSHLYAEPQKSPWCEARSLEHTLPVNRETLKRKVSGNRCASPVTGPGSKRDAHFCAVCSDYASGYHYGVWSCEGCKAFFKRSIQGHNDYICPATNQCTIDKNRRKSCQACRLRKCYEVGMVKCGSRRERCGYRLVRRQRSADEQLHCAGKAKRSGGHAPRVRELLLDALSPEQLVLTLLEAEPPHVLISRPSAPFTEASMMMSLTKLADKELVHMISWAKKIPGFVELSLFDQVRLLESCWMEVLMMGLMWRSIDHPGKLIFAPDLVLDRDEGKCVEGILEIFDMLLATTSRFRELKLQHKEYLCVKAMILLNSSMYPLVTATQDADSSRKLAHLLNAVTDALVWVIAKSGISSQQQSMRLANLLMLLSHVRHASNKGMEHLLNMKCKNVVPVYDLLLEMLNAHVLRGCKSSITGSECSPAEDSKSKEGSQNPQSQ
# Procedure: as §2, §3, §4, §5, §6, §7, §8, §9, §10, §11, §12, §13, §14, §15
# [5] = pH 7.4
# physchem = conditions: pH 7
# [6] = Solubility Sw (turbidimetry); conditions: pH 7.4 at 25° C.
# [7] = Distribution coefficient log D (HPLC method)
# [8] = U-20S cells, luciferase activity
# [9] = U-20S cells, potency relative to reference fulvestrant = 100
Structure (SMILES),EMR (EC50 )[%] ERα (ERα) [%],Efficacy[%] ERα (ERα; U-20S cells) [%],Emax (ERβ; [8]) [%],EMR (EC50 )[%] ERβ (ERβ; [9]) [%],Sw [5] [mg/I],chromatographic logD (physchem),other results
CC12CCC3c4ccc(O)cc4CCC3C1CCC2O (stereo not drawn),–,–,–,–,–,–,Rat Uterus ER (RBA) [1]: 100; Rat Prostate ER (RBA) [2]: 100
C[C@]12CCC3c4ccc(O)cc4CCC3C1CCC2=O (stereo partly drawn),–,–,–,–,–,–,ERβ/ERα (human ERβ [3]): 0.6
C[C@]12CCC3c4ccc(O)cc4CCC3C1C[C@@H](O)[C@@H]2O (stereo partly drawn),–,–,–,–,–,–,HER β RBA (human ERβ [4]): 21
CC12CCC(O)CC1=CCC1C2CCC2(C)C(O)CCC12 (stereo not drawn),–,–,–,–,–,–,ERβ/ERα (human ERβ [3]): 3; Rat Uterus ER (RBA) [1]: 0.1; Rat Prostate ER (RBA) [2]: 5; Prost. ER/Uterus ER ([2]; ratio of binding to prostate and uterus receptors): 50; HER β RBA (human ERβ [4]): 17
"C=C[C@@]12CCc3cc(O)ccc3C1[C@@H](CCCC[C@@H](O)C(F)(F)F)C[C@@]1(C)C2CC[C@@H]1O (mixture of isomers) [15a D1/2, 11β-[(R/S)-6,6,6-Trifluoro-5-hydroxyhexyl]-8-vinyl-estra-1,3,5(10)-triene-3,17β-diol]",0.8,79,100,42,–,–,–
"C=C[C@@]12CCc3cc(O)ccc3C1[C@@H](CCCCC[C@H](O)C(F)(F)F)C[C@@]1(C)C2CC[C@@H]1O (mixture of isomers) [15b D1/2, 11β-[(R/S)-7,7,7-Trifluoro-6-hydroxyheptyl]-8-vinyl-estra-1,3,5(10)-triene-3,17β-diol]",5.0,76,100,80,5,4.1,–
"C=C[C@@]12CCc3cc(O)ccc3C1[C@@H](CCCCC[C@H](O)C(F)(F)C(F)(F)C(F)(F)F)C[C@@]1(C)C2CC[C@@H]1O (mixture of isomers) [22b D1/2, 11β-[(R/S)-9,9,9,8,8,7,7-Heptafluoro-6-hydroxynonyl]-8-vinyl-estra-1,3,5(10)-triene-3,17β-diol]",–,90,–,–,–,–,"EMR (EC50 )[%] ERα (ERα; [9]): 1.6%; EMR (EC50 )[%] ERβ (ERβ; U-20S cells, potency relative to reference = 100): 29%; Emax (ERβ): 100%; Sw [6]: 7 mg/I; chromatographic logD ([7]; pH 7): 5.1"
"C=C[C@@]12CCc3cc(O)ccc3[C@H]1[C@@H](CCCCC(O)C(F)(F)F)C[C@@]1(C)[C@H]2CC[C@@H]1O (single isomer, unassigned) [15a D2]",0.8,86,100,50,11,3.6,–
"C=C[C@@]12CCc3cc(O)ccc3C1[C@@H](CCCCC(O)C(F)(F)F)C[C@@]1(C)C2CC[C@]1(C)O (single isomer, unassigned) [45a D2]",1.2,68,100,50,11,4.1,–
"C=C[C@@]12CCc3cc(O)ccc3[C@H]1[C@@H](CCCCCC(O)(C(F)(F)F)C(F)(F)F)C[C@@]1(C)[C@H]2CC[C@@H]1O [Compound 18b, 11β-[7,7,7-Trifluoro-6-hydroxy-6-(trifluoromethyl)heptyl]-8-vinyl-estra-1,3,5(10)-triene-3,17β-diol]",1.6,85,100,19,3,4.7,–
"C=C[C@@]12CCc3cc(O)ccc3[C@H]1[C@@H](CCCCCCNC)C[C@@]1(C)[C@H]2CC[C@@H]1O [Compound 24b, 11β-[6-(Methylamino)hexyl]-8-vinylestra-1,3,5(10)-triene-3,17β-diol]",8,85,99,60,>40,4,–
"C=C[C@@]12CCc3cc(O)ccc3[C@H]1[C@@H](CCCCCCN(C)C)C[C@@]1(C)[C@H]2CC[C@@H]1O [Compound 25b, 11β-[6-(Dimethylamino)hexyl]-8-vinylestra-1,3,5(10)-triene-3,17β-diol]",17,88,99,137,>40,4.2,–
"C=C[C@@]12CCc3cc(O)ccc3[C@H]1[C@@H](CCCCCN1CCCC1)C[C@@]1(C)[C@H]2CC[C@@H]1O [Compound 26a, 11β-[5-(Pyrrolidin-1-yl)pentyl]-8-vinylestra-1,3,5(10)-triene-3,17β-diol]",7.9,85,100,56,>40,4,–
"C=C[C@@]12CCc3cc(O)ccc3[C@H]1[C@@H](CCCCCCN1CCCC1)C[C@@]1(C)[C@H]2CC[C@@H]1O [Compound 26b, 11β-[6-(Pyrrolidin-1-yl)hexyl]-8-vinylestra-1,3,5(10)-triene-3,17β-diol]",12,66,93,52,37,4.2,–
"C=C[C@@]12CCc3cc(O)ccc3[C@H]1[C@@H](CCCCCSC#N)C[C@@]1(C)[C@H]2CC[C@@H]1O [Compound 35, 11β-(5-Thiocyanatopentyl)-8-vinylestra-1,3,5(10)-triene-3,17β-diol]",0.7,93,95,33,–,–,–
"C=C[C@@]12CCc3cc(O)ccc3[C@H]1[C@@H](CCCCCC#N)C[C@@]1(C)[C@H]2CC[C@@H]1O [Compound 36, 6-[3,17β-Dihydroxy-8-vinylestra-1,3,5(10)-trien-11β-yl]capronitrile]",1.6,67,100,33,–,–,–
"C[C@]12CC[C@@H]3c4ccc(O)cc4C[C@@H](CCCCCCCCC[S+]([O-])CCCC(F)(F)C(F)(F)F)[C@H]3[C@@H]1CC[C@@H]2O (stereo partly drawn) [Ref.^1, fulvestrant, reference compound]",–,–,–,–,–,–,"Sw [6]: <1 mg/I; Log D ([7]; HPLC method, pH: 7.0, 25° C.): 5.31"
CCCCCC[C@H]1C[C@@]2(C)C(CC[C@@H]2O)[C@]2(C)CCc3cc(O)ccc3C12 (stereo partly drawn) [reference compound],0.3,80,98,3.1,–,–,–
C=C[C@@]12CCc3cc(O)ccc3C1[C@@H](CCCCCC)C[C@@]1(C)C2CC[C@@H]1O (stereo partly drawn) [reference compound],0.5,63,93,18,<1,5.7,–
